Source: PubChem BioAssay (NCI)
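Cultured in 96-well plates, cells were exposed to test compound for 48 hours across five concentrations. TGI denotes the concentration required for complete inhibition of growth.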

Assays:
Experiment in all cases: NCI tumour cell line growth inhibition, 48 h
[1] = system: K-562 leukemia
[2] = system: CAKI-1 renal
[3] = system: SF-539 CNS
[4] = system: KM20L2 colon
[5] = system: HCT-116 colon
[6] = system: SF-295 CNS
[7] = system: SK-OV-3 ovarian
[8] = system: DMS 273 small cell lung
[9] = system: OVCAR-5 ovarian
[10] = system: UO-31 renal
[11] = system: HOP-92 NSCLC
[12] = system: HCC-2998 colon
[13] = system: SNB-75 CNS
[14] = system: M19-MEL melanoma
[15] = system: SNB-78 CNS
[16] = system: COLO 205 colon
[17] = system: 786-0 renal
[18] = system: UACC-257 melanoma
[19] = system: KM12 colon
[20] = system: SW-620 colon
[21] = system: OVCAR-8 ovarian
[22] = system: HOP-18 NSCLC
[23] = system: SNB-19 CNS
[24] = system: RPMI-8226 leukemia
[25] = system: LXFL 529 NSCLC
[26] = system: SN12C renal
[27] = system: NCI-H460 lung
[28] = system: A549 NSCLC
[29] = system: NCI-H226 lung
[30] = system: SF-268 CNS
[31] = system: SK-MEL-2 melanoma
[32] = system: OVCAR-4 ovarian
[33] = system: NCI-H23 lung
[34] = system: DLD-1 colon
[35] = system: OVCAR-3 ovarian
[36] = system: NCI-H522 lung
[37] = system: U251 CNS
[38] = system: M14 melanoma
[39] = system: HCT-15 colon
[40] = system: IGROV1 ovarian
[41] = system: MALME-3M melanoma
[42] = system: RXF 393 renal
[43] = system: EKVX NSCLC
[44] = system: HOP-62 NSCLC
[45] = system: ACHN renal
[46] = system: HT29 colon
[47] = system: A498 renal
[48] = system: SK-MEL-28 melanoma
[49] = system: DMS 114 small cell lung
[50] = system: UACC-62 melanoma
[51] = system: MOLT-4 leukemia
[52] = system: SK-MEL-5 melanoma
[53] = system: SR leukemia
[54] = system: TK-10 renal
[55] = system: CCRF-CEM leukemia
[56] = system: HL-60(TB) leukemia

**Q.** For CC1=C(C(=O)Nc2ccc([N+](=O)[O-])cc2)C(c2ccc3c(c2)OCO3)C(C(=O)Nc2ccc([N+](=O)[O-])cc2)=C(C)N1, which TGI [1] is on record?
**A.** > 100 µM

**Q.** What about the TGI [2] of the same compound?
**A.** > 100 µM

**Q.** And the TGI [3]?
**A.** > 100 µM

**Q.** What about the TGI [4] of the same compound?
**A.** > 100 µM

**Q.** And the TGI [5]?
**A.** > 100 µM

**Q.** What about the TGI [6] of the same compound?
**A.** > 100 µM

**Q.** What about the TGI [7] of the same compound?
**A.** > 100 µM

**Q.** What about the TGI [8] of the same compound?
**A.** 97.4 µM

**Q.** And the TGI [9]?
**A.** > 100 µM

**Q.** And the TGI [10]?
**A.** > 100 µM

**Q.** What about the TGI [11] of the same compound?
**A.** 38.9 µM

**Q.** What about the TGI [12] of the same compound?
**A.** 57.4 µM

**Q.** What about the TGI [13] of the same compound?
**A.** 45.7 µM

**Q.** And the TGI [14]?
**A.** 61.6 µM

**Q.** And the TGI [15]?
**A.** > 100 µM

**Q.** What about the TGI [16] of the same compound?
**A.** 18.4 µM

**Q.** What about the TGI [17] of the same compound?
**A.** > 100 µM

**Q.** And the TGI [18]?
**A.** 50.7 µM

**Q.** And the TGI [19]?
**A.** 24.9 µM

**Q.** And the TGI [20]?
**A.** > 100 µM

**Q.** And the TGI [21]?
**A.** 27.9 µM

**Q.** What about the TGI [22] of the same compound?
**A.** > 100 µM

**Q.** What about the TGI [23] of the same compound?
**A.** > 100 µM

**Q.** And the TGI [24]?
**A.** 68.5 µM

**Q.** And the TGI [25]?
**A.** > 100 µM

**Q.** And the TGI [26]?
**A.** > 100 µM

**Q.** And the TGI [27]?
**A.** > 100 µM

**Q.** What about the TGI [28] of the same compound?
**A.** > 100 µM

**Q.** What about the TGI [29] of the same compound?
**A.** 55.8 µM

**Q.** And the TGI [30]?
**A.** > 100 µM

**Q.** What about the TGI [31] of the same compound?
**A.** 35 µM

**Q.** And the TGI [32]?
**A.** > 100 µM

**Q.** And the TGI [33]?
**A.** 57.9 µM

**Q.** What about the TGI [34] of the same compound?
**A.** > 100 µM

**Q.** What about the TGI [35] of the same compound?
**A.** > 100 µM

**Q.** What about the TGI [36] of the same compound?
**A.** > 100 µM

**Q.** What about the TGI [37] of the same compound?
**A.** > 100 µM

**Q.** What about the TGI [38] of the same compound?
**A.** 50.4 µM

**Q.** And the TGI [39]?
**A.** > 100 µM

**Q.** And the TGI [40]?
**A.** > 100 µM

**Q.** And the TGI [41]?
**A.** > 100 µM

**Q.** And the TGI [42]?
**A.** > 100 µM

**Q.** And the TGI [43]?
**A.** > 100 µM

**Q.** And the TGI [44]?
**A.** > 100 µM

**Q.** And the TGI [45]?
**A.** > 100 µM

**Q.** And the TGI [46]?
**A.** > 100 µM

**Q.** What about the TGI [47] of the same compound?
**A.** 69.1 µM

**Q.** What about the TGI [48] of the same compound?
**A.** > 100 µM

**Q.** And the TGI [49]?
**A.** > 100 µM

**Q.** What about the TGI [50] of the same compound?
**A.** 59.4 µM

**Q.** What does the source list for C=CC1(NS(=O)(=O)c2ccc(C)cc2)CCC(C(C)(C)C)CC1 (stereo not given)?
**A.** TGI [1]: > 100 µM; TGI [2]: > 100 µM; TGI [3]: > 100 µM; TGI [4]: > 100 µM; TGI [5]: > 100 µM; TGI [7]: > 100 µM; TGI [8]: > 100 µM; TGI [10]: > 100 µM; TGI [12]: > 100 µM; TGI [13]: 54.1 µM; TGI [14]: > 100 µM; TGI [15]: > 100 µM; TGI [16]: > 100 µM; TGI [17]: > 100 µM; TGI [18]: > 100 µM; TGI [19]: > 100 µM; TGI [51]: > 100 µM; TGI [20]: > 100 µM; TGI [21]: > 100 µM; TGI [22]: > 100 µM; TGI [23]: > 100 µM; TGI [24]: > 100 µM; TGI [25]: > 100 µM; TGI [26]: > 100 µM; TGI [52]: > 100 µM; TGI [53]: > 100 µM; TGI [27]: > 100 µM; TGI [28]: > 100 µM; TGI [29]: > 100 µM; TGI [54]: > 100 µM; TGI [55]: > 100 µM; TGI [30]: > 100 µM; TGI [56]: > 100 µM; TGI [31]: > 100 µM; TGI [32]: > 100 µM; TGI [34]: > 100 µM; TGI [35]: > 100 µM; TGI [36]: > 100 µM; TGI [37]: > 100 µM; TGI [38]: > 100 µM; TGI [39]: > 100 µM; TGI [40]: > 100 µM; TGI [41]: > 100 µM; TGI [42]: 54.8 µM; TGI [44]: > 100 µM; TGI [45]: > 100 µM; TGI [47]: > 100 µM; TGI [48]: > 100 µM; TGI [49]: > 100 µM; TGI [50]: > 100 µM
